Measurements taken from patent US11149068B2, “Pore-forming peptides and uses thereof” (The Administrators of the Tulane Educational Fund, priority 2018, dated 2021).
Ends that are not written are not given here.

Columns and labels:
[1] = Macromolecular leakage assay (release of 40 kDa TAMRA-biotin-dextran from lipid vesicles); format: biochemical; settings: for dextran release at pH 7: peptide to lipid ratios as high as 1:50
Procedure: (§1) Large unilamellar vesicles for leakage assays were prepared as previously described (37) in 100 mM potassium chloride, with 10 mM sodium phosphate or 10 mM sodium acetate buffer. For small molecule leakage, lipids, dried from chloroform, were resuspended in buffer made of: 12.5 mM ANTS, 45 mM DPX, 5 mM HEPES, and 20 mM sodium chloride. For macromolecular leakage assays, lipids were resuspended in buffer with 1 mg/ml TAMRA-biotin-dextran (TBD). Lipid suspensions were frozen and thawed ten times and then extruded 10 times using a 0.1 um pore size Nuclepore polycarbonate filter (38). After extrusion, external ANTS and DPX were removed by gel filtration with Sephadex G100. External TBD was removed using streptavidin agarose resin.
As described previously (33), 40 nM Alexafluor488-labelled streptavidin (SA) was added to a solution of vesicles with entrapped TBD. This solution was added to wells of a 96-well plate containing peptide, and the plate was incubated for 60 min. Release of the 40 kDa dextran enables TBD-SA complex formation, which leads to quenching of the AF488 fluorescence (excitation 495 nm, emission at 519 nm) by TAMRA. The fraction of macromolecule leakage was determined by Equation 2:
[formula] where I is the intensity at 60 min, Ibackground is the intensity of a vesicle control with no peptide, and Itriton is the intensity in the presence of vesicles and 0.1% v/v of the detergent Triton X-100, added to solubilize the vesicles and release the ANTS.
Step 4: Next, to the same wells, a different preparation of vesicles was added. These vesicles have entrapped 40 kDa TBD and external Alexafluor488 streptavidin. The TBD vesicles were in sodium acetate buffer at pH 4 so that the final pH in each well was 5.0. This second addition of vesicles increased the total volume to 200 μl which decreased peptide to 2.5 μM and decreased ANTS vesicle concentration to 0.5 mM. The new TBD vesicles were present at 1.5 mM so that the total peptide to total lipid ratio was roughly about 1:800.
Step 5: After 60 minutes, the intensity of the AF488-streptavidin was measured to quantitate macromolecule release, which is calculated with equation 2. This orthogonal and sequential screen gives two measurements that are used to identify peptides with the desired properties: i) Small molecule release at pH 7 and P:L=1:200; ii) Macromolecule release at pH 5 and P:L=1:800.
Verification of positive peptides. Since the selected peptides are very similar to each other, a subset of them were synthesized and purified for detailed validation. Tested peptides included four representative sequences with five acidic residues, pHD24, pHD34, pHD108 and pHD118 as well as pHD15, one of the two with six acidic residues. Because there is interest in pH-triggered macromolecule release at low pH, the positive peptides were validated with the macromolecular release assay using 40 kDa dextran and 53 kD streptavidin, described above. Dextran leakage was measured as functions of peptide concentration and pH using vesicles made from phosphatidylcholine lipids.

[2] = Small molecule leakage assay (ANTS/DPX release from lipid vesicles); format: biochemical; settings: screen conditions
Procedure: as §1, with “External TBD was removed using streptavidin agarose resin.” left out
Lipid vesicles with entrapped ANTS and DPX were diluted into wells of a 96 well plate containing peptide. After 30 minutes, vesicle permeabilization was measured by an increase in ANTS fluorescence, with excitation at 350 nm and emission at 519 nm. Fractional leakage was quantified using Equation 1: […]
Step 2: Aliquots of peptides in water from the plate in Step 1 were added to wells of a second plate, followed by addition of 1 mM lipid vesicles in 100 μl of sodium phosphate buffer at pH 7. […] Leakage, if it occurs, causes an increase in fluorescence of ANTS. […]
Step 3: After 30 minutes of incubation, ANTS fluorescence was measured for each well to quantitate small molecule release using equation 1.

[3] = Circular dichroism spectroscopy of peptide secondary structure in the presence of vesicles versus pH; format: physicochemical; settings: P:L=1:200
Procedure: FIGS. 5A-5B are graphs depicting example binding and folding data. FIG. 5A: Circular dichroism spectra of pHD108 (SEQ ID NO: 9) versus pH at P:L=1:200 in 1 mM POPC vesicles. Separate samples are made at each pH and equilibrated for 30 minutes prior to the measurement. The spectra show a structural transition from random coil at pH 7 to classical α-helix at pH<5.75. FIG. 5B: Tryptophan fluorescence spectra of pHD108 at P:L=1:200 in 1 mM POPC vesicles. Separate samples are made at each pH and equilibrated for 30 minutes prior to the measurement. The spectra show a transition from a more polar, water-exposed environment to a less polar or buried environment consistent with peptide partitioning into bilayers.
Peptide secondary structure in the presence of vesicles as a function of pH was studied by circular dichroism spectroscopy. Example CD spectra for pHD108 at P:L=1:200 are seen in FIG. 5A and show a pH-triggered transition from random coil to α-helical structure with an effective pKa around 5.5. Circular dichroism was measured in a JASCO 810 spectropolarimeter. Samples in buffers of various pH were prepared by mixing peptide and vesicle solutions, each prepared at the needed pH. Spectra were collected on samples of 2 mM vesicles and 10 μM peptide in 1 mm path rectangular quartz cuvette after 1 hour of equilibration.

[4] = system: Chinese Hamster Ovary cells; assay: Cell viability, Alamar Blue assay; format: cell-based; settings: ten minutes with peptide at pH 5 or pH 7, overnight recovery; except at the highest concentration
Procedure: FIGS. 7A-7B are graphs showing the effect of peptides on the viability Chinese Hamster Ovary cells incubated with either the lytic peptide MelP5, or the pH-triggerred membrane permeabilizing peptide pHD108. Cells were grown to 50% confluency, and then treated for ten minutes with peptide in cell culture media at pH 5 (FIG. 7A) or at pH 7 (FIG. 7B). Full media with growth factors was added and the cells recovered overnight. Viability was assessed with the Alamar Blue assay. The values were normalized to cells treated with media only (negative control) and media only, no cells (positive control).

## GIGAVLKVLATGLPALISWIKAAQQL [MelP5, synthetically evolved gain-of-function variant of melittin, non pH-sensitive macromolecular pore-former]
[1]; screen conditions, 1 nmol, all pH values
  macromolecule release: partial
[1]; screen conditions, 4 nmol (P:L=1:100)
  release of macromolecule probe (TBD): essentially complete release
[2]; 4 nmol
  release of small molecule probe (ANTS): essentially complete release

## GIGDVLHELAADLPELQEWIHAAQQL [pHD24]
[1]
  dextran release at pH 7: no activity

## GIGEVLHELADDLPDLQEWIHAAQQL [pHD15]
[1]; P:L=1:200, 1 mM POPC vesicles, 40 kDa dextran
  apparent pKa of macromolecule leakage (curve midpoints): lowest apparent pKa value
[1]
  dextran release at pH 7: no activity

## GIGEVLHELAEGLPELQEWIHAAQQL [pHD108]
[3]
  effective pKa of transition from random coil to α-helical structure: around 5.5
[4]
  toxicity to mammalian cells: did not exhibit toxicity

## Triton X-100
[1]; screen conditions, 0.1% v/v
  release of macromolecule probe (TBD): essentially complete release
[2]; 0.1% v/v
  release of small molecule probe (ANTS): essentially complete release
